Reference: patent US20100167397A1, “ENDOCRINE CELL LINES AND METHOD OF USING THE SAME” (KYOWA HAKKO KOGYO CO., LTD., priority 2002, published 2010)

Tests used:
leptin receptor (Ob-Rb) [1] = molecular target: T1, leptin receptor (Ob-Rb) (Rattus norvegicus, UniProt Q62959); test: Leptin reactivity: immunostaining using an anti-STAT antibody (STAT3 transfer from cytoplasm to nucleus); type: cell-based; conditions: NC-6, NC-12 and AMN2-25; 100 nmol/L human leptin, 37° C., 15 minutes; without leptin cytoplasm was stained
T1 construct: endogenous in cells; host or cells: rat hypothalamus-derived immortalized lines NC-6, NC-12, AMN2-25
T1 sequence (Q62959 22-1162): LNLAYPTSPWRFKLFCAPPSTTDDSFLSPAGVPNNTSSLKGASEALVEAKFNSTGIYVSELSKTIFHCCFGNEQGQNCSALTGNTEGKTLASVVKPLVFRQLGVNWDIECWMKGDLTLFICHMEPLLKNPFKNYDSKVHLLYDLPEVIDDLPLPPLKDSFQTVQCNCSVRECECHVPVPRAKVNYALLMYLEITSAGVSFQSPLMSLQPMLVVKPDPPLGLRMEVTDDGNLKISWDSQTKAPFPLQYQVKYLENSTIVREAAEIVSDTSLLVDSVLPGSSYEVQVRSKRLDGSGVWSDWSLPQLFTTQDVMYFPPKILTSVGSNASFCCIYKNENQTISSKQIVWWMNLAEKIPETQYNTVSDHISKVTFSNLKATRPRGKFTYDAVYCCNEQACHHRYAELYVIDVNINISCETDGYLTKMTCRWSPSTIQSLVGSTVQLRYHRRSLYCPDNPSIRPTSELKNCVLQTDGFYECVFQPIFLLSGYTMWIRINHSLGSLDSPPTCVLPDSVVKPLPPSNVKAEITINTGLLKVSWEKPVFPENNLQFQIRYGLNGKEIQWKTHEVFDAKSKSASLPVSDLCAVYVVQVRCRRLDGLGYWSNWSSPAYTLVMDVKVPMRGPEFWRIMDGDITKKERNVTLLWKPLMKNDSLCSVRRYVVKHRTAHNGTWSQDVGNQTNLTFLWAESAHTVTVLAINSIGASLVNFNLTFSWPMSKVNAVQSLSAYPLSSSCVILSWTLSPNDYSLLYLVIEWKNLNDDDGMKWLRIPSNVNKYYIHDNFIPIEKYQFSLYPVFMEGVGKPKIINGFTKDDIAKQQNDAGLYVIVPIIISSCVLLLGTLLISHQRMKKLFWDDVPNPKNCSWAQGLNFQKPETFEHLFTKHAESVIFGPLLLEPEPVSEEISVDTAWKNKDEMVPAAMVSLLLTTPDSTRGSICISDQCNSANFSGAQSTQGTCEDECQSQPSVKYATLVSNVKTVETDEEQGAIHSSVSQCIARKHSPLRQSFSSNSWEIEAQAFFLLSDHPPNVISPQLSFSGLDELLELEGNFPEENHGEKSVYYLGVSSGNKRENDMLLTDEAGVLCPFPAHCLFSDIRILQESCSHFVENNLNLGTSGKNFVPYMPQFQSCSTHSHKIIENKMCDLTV
Procedure: In a cell line where expression of a leptin receptor (Ob-Rb) protein is confirmed by the method mentioned in Example 7, it was analyzed by the following method whether a functional Ob-Rb is expressed. The following method is a method where the fact that a transcription factor STAT3 is phosphorylated upon stimulation by leptin and is transferred from cytoplasm to nucleus is utilized.
NC-6, NC-12 and AMN2-25 expressing leptin receptor (Ob-Rb) protein are cultured according to the method mentioned in Example 1. After the cultivation, about 1×10^3 cells were plated on 8 chambers coated with CELL-TAK and cultured for 3 days where cultivation temperature was shifted from 33° C. to 37° C. […] After the cultivation, exchange to a DMEM/F-12 (-FCS) medium was conducted. After 2 hours from the exchange of the medium, the cells were stimulated with 100 nmol/L of human leptin (manufactured by R&D Systems) at 37° C. for 15 minutes.
After the stimulation, immunostaining was carried out using an anti-STAT antibody (manufactured by NEB) and a cyanine 3-labeled anti-rabbit IgG (secondary antibody) diluted to an extent of 200-fold. The immunostaining was carried out according to the manual of Phospho Plus Stat 3 (Tyr 705) Antibody it (NEB). […] After the staining, drying was conducted, mounting with a discoloration inhibitor solution was done and an observation under a fluorescence microscope was carried out.

leptin receptor (Ob-Rb) [2] = molecular target: T1, leptin receptor (Ob-Rb); test: Leptin reactivity: change in expression of c-fos gene and SOCS-3 gene by PCR; type: cell-based; conditions: NC-6, NC-12 and AMN2-25; 100 nmol/L human leptin, 0 minute, 30 minutes or 1 hour
Procedure: Expression of c-fos gene and SOCS-3 gene, which has been known to be increased in hypothalamic cells by leptin stimulation, was analyzed by the following method utilizing a PCR whereby the leptin reactivity of the cell line, which was confirmed to be expressing a functional OB-Rb in the above (1), was confirmed from another view.
NC-6, NC-12 and AMN2-25 were cultured according to the method mentioned in Example 1. After the cultivation, about 2×10^4 cells were plated on a 35-mm dish coated with poly-lysine and cultured out for 5 days by shifting the cultivation temperature from 33° C. to 37° C. […] After the cultivation, exchange to a DMEM/F-12 (-FCS) medium was done.
After 2 hours from the exchange of the medium, 100 nmol/L of human leptin (manufactured by R&D Systems) was added. After incubating at 37° C. for 0 minute, 30 minutes or 1 hour, total RNA was collected from each cell line using an RNeasy Mini Kit (manufactured by Qiagen). Single-stranded cDNA was synthesized from the total RNA according to the method mentioned in Example 6 and a PCR was carried out using the cDNA as a template. With regard to primers specific to c-fos gene, synthetic DNAs having the nucleotide sequences of SEQ ID NOS: 45 and 46 were used while, with regard to primers specific to SOCS-3 gene, synthetic DNAs having the nucleotide sequences of SEQ ID NOS: 47 and 48 were used. […]

sulfonylurea receptor [3] = test: Intracellular Ca2+ rise on sulfonylurea in immortalized cell lines derived from hypothalamus (Fura-2AM, CAF-110); type: cell-based, rat; conditions: 0.5 mmol/L
Procedure: The immortalized cell lines (a mixture) derived from hypothalamus of female adult rat obtained in Example 3 were cultured by the method mentioned in Example 1. […] The resulting cells were washed with an HBSS buffer (manufactured by Gibco) twice and the cells were floated. Sulfonylurea (Tolbutamide; manufactured by Alexis) was added to about 1×10^6 cell to make its final concentration 0.5 mmol/L and a rise in Ca^2+ concentration in the cells was checked. Measurement of the Ca^2+ concentration in the cells was conducted using a CAF-110 instrument (manufactured by Nippon Bunko).
As same as in the above (1), reactivity of an immortalized cell line (single clone AMN2-25) derived from hypothalamus of male adult rat obtained in Example 3 with sulfonylurea was tested.

sulfonylurea receptor [4] = molecular target: T2, sulfonylurea receptor (Rattus norvegicus, UniProt Q09429); test: Intracellular Ca2+ rise on sulfonylurea in single clones derived from Langerhans islets (Fura-2AM); type: cell-based; conditions: single clones M-6, M-9, M-15, M-19, M-20, M-33, M-43, F-1 and F-9; 0.5 mmol/L
T2 construct: endogenous in cells; host or cells: rat islet-derived clones M-6, M-9, M-15, M-19, M-20, M-33, M-43, F-1, F-9
T2 sequence (Q09429 whole entry): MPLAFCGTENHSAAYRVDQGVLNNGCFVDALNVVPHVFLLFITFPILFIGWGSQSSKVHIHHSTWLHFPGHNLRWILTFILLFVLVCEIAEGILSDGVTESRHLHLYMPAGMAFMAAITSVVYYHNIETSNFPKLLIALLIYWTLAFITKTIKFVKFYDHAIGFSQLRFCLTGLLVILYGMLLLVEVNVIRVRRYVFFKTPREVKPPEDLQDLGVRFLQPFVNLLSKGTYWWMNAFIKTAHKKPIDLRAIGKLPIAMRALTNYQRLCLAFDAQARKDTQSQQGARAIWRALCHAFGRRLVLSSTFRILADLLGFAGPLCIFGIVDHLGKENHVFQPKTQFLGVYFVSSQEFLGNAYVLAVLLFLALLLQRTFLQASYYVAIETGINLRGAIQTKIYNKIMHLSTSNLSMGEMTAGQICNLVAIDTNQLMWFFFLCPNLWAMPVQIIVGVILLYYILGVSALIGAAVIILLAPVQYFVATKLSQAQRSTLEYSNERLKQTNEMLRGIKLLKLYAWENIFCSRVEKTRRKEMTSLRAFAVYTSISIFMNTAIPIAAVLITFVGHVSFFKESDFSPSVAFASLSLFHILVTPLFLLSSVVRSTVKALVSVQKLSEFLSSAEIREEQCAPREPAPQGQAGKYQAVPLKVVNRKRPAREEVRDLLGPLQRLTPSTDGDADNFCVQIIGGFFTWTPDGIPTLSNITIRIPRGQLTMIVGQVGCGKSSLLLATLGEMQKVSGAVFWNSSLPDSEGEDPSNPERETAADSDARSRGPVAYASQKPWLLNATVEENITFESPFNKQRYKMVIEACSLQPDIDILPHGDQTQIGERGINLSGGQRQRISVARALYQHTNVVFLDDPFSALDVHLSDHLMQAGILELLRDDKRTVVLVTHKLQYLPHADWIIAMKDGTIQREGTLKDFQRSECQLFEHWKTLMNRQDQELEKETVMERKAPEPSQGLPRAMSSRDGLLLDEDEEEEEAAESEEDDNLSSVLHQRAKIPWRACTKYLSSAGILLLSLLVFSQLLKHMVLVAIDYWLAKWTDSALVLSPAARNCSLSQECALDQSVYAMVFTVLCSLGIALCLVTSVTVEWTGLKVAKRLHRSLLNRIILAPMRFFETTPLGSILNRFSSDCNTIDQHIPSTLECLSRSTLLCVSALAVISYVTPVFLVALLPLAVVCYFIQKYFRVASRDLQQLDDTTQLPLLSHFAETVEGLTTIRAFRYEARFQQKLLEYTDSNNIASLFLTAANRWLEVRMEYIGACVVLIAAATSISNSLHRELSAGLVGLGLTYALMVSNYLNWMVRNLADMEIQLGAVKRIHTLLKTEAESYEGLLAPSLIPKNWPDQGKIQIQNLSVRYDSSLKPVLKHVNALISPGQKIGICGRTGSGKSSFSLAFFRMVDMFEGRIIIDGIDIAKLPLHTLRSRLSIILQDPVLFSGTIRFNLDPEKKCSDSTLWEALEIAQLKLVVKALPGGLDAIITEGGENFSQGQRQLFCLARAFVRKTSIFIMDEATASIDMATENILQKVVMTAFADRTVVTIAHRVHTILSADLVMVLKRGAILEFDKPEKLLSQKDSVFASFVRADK
T2 sequence (P70673 whole entry partner): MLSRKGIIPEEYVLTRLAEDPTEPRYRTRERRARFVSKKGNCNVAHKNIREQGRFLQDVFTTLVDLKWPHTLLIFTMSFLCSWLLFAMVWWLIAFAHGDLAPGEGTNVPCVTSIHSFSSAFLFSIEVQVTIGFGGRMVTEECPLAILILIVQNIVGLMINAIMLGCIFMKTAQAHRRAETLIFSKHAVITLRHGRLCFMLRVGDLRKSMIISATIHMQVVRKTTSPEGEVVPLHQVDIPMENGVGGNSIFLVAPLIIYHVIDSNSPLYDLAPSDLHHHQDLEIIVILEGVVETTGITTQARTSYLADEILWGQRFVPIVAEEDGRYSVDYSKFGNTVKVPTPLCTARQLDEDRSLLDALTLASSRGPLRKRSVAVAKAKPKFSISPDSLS
Procedure: About 5×10^6 cells of single clones (M-6, M-9, M-15, M-19, M-20, M-33, M-43, F-1 and F-9) of immortalized cell lines mentioned in Example 11 obtained using an RPMI 1640 (05918) medium were plated on a 60-mm dish and cultured at 33° C. for 2 days using an RPMI 1640 (05918) medium.
After the cultivation, it was washed with an HBSS buffer (manufactured by Gibco) for two times and the cells were floated. Sulfonylurea (Tolbutamide, manufactured by Alexis) was added to about 1×10^6 of the cells so as to make the final concentration 0.5 mmol/L whereupon an increase in Ca^2+ concentration in the cells was checked. Measurement of the Ca^2+ concentration in the cells was carried out using a CAF-100 instrument (manufactured by Nippon Bunko).

CRE reporter in GBC7 = test: Constitutive activity of GPCR, Method 4 (GBC7 host, firefly luciferase); type: cell-based, human; conditions: activity with 17β-estradiol divided by activity without, control plasmid about 1
Procedure: This is a measuring method for constitutive activity of GPCR which is the same as Method 2 except that GBC7 was used as a host and no puromycin was added in the incubation of the transformants.
(§1) In each method, the induction ratio of the cells transfected with the control plasmid was about 1. It is judged that the higher the induction ratio of the cells to which a GPCR expression plasmid was transfected, the stronger the constitutive activity of the GPCR.

CRE reporter in GBCC13 = test: Constitutive activity of GPCR, Method 2 (GBCC13 host, firefly luciferase); type: cell-based, human; conditions: activity with 17β-estradiol divided by activity without, control plasmid about 1
Procedure: After the incubation, Steady Glo Luciferase Assay System (manufactured by Promega) was added and firefly luciferase activity was measured. For the measurement of activity, Auto Lumat LB953 (manufactured by Berthold) or Top Count (Packard) was used. […] It is judged that the higher the induction ratio of the cells to which a GPCR expression plasmid was transfected, the stronger the constitutive activity of the GPCR.

CRE reporter in GBCR2 = test: Constitutive activity of GPCR, Method 3 (GBCR2 host, Renilla reniformis luciferase); type: cell-based, human; conditions: activity with 17β-estradiol divided by activity without, control plasmid about 1
Procedure: This is a measuring method for constitutive activity of GPCR which is the same as Method 1 except that GBCR2 was used as a host and no puromycin was added in the incubation of the transformants.
as §1

Molecule: leptin: human leptin (manufactured by R&D Systems)
- STAT3 immunostaining upon stimulation with leptin (leptin receptor (Ob-Rb) [1]): the area inside the nucleus was stained
- expression of SOCS-3 gene by stimulation with leptin (leptin receptor (Ob-Rb) [2]): increased
- expression of c-fos gene by stimulation with leptin (leptin receptor (Ob-Rb) [2]): increased

Molecule: CCCCNC(=O)NS(=O)(=O)c1ccc(C)cc1 [sulfonylurea, Tolbutamide]
- rise in Ca2+ concentration in the cells (sulfonylurea receptor [3]; immortalized cell lines (a mixture) from hypothalamus of female adult rat): cell lines which reacted with sulfonylurea were present
- Ca2+ concentration in the cell (sulfonylurea receptor [3]; single clone AMN2-25): increased
- Ca2+ concentration in the cells (sulfonylurea receptor [4]): increased

Molecule: GPR 52
- Constitutive Activity (induction ratio) (CRE reporter in GBC7): 40-fold

Molecule: GPR 25
- Constitutive Activity (induction ratio) (CRE reporter in GBCC13): 4.8-fold

B1: GPR 12 (protein, UniProt P47775 1-334, looked up)
G-protein coupled receptor 12: MNEDLKVNLSGLPRDYLDAAAAENISAAVSSRVPAVEPEPELVVNPWDIVLCTSGTLISCENAIVVLIIFHNPSLRAPMFLLIGSLALADLLAGIGLITNFVFAYLLQSEATKLVTIGLIVASFSASVCSLLAITVDRYLSLYYALTYHSERTVTFTYVMLVMLWGTSICLGLLPVMGWNCLRDESTCSVVRPLTKNNAAILSVSFLFMFALMLQLYIQICKIVMRHAHQIALQHHFLATSHYVTTRKGVSTLAIILGTFAACWMPFTLYSLIADYTYPSIYTYATLLPATYNSIINPVIYAFRNQEIQKALCLICCGCIPSSLAQRARSPSDV
- Constitutive Activity (induction ratio) (CRE reporter in GBCR2): 188-fold
